Measured values published in ChEMBL document CHEMBL1121981, “Synthesis and biological evaluation of a metazocine-containing enkephalinamide. Evidence for nonidentical roles of the tyramine moiety in opiates and opioid peptides” (J Med Chem, 1982).
The source made the active and inactive calls. The calls are words filed in the database; no cut-off is given here.

Target: Mu-type opioid receptor (Cavia porcellus) (UniProt P97266)
Test: Mu opioid receptor agonist activity was determined by inhibition of electrically stimulated myenteric plexus in guinea pig ileum; Inactive, weak antagonism with agonist morphine PA2 of <6
Format: functional, tissue-based
Settings: filed as antagonist

Sequence of Mu-type opioid receptor (Cavia porcellus) (P97266 whole entry): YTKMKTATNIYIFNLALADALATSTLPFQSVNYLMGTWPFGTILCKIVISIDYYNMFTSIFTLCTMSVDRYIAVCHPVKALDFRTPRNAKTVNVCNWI

Which Relative potency does the source give for CSCC[C@@H](NC(=O)[C@H](Cc1ccccc1)NC(=O)CNC(=O)CNC(=O)C12Cc3ccc(O)cc3C(C)(CCN1C)C2C)C(N)=O (single isomer, unassigned; (-)) here?
The Relative potency was “Partial antagonist”.

Target: Mu-type opioid receptor (Cavia porcellus, UniProt P97266)
Test: Mu opioid receptor agonist activity as inhibition of electrically stimulated mysenteric plexus in guinea pig ileum
Format: functional, tissue-based
Settings: not given

Sequence of Mu-type opioid receptor (P97266 whole entry): as above

CSCC[C@H](NC(=O)[C@H](Cc1ccccc1)NC(=O)CNC(=O)CNC(=O)C1CC2(C)c3cc(O)ccc3CC(C2C)N1C)C(N)=O (some centres not stated) was tested. Which IC50 did it give?
The IC50 was 7.97 µM.

Which IC50 does the source give for CSCC[C@H](NC(=O)[C@H](Cc1ccccc1)NC(=O)CNC(=O)[C@@H](C)NC(=O)[C@@H](N)Cc1ccc(O)cc1)C(N)=O here?
The IC50 was 0.0174 µM.

For CC1C2Cc3ccc(O)cc3C1(C)CC(C(N)=O)N2C (single isomer, unassigned; (-)) [listing 1 of 2 here], which IC50 is on record?
Its IC50 is 6.09 µM.

With CC1C2(C)CCN(C)C1(C(N)=O)Cc1ccc(O)cc12 (single isomer, unassigned; (-)) [listing 1 of 2 here] as the molecule, how does the IC50 read?
Its IC50 is 2.82 µM.

With CC1C2Cc3ccc(O)cc3C1(C)CC(C#N)N2C (single isomer, unassigned; form 1) as the molecule, how does the IC50 read?
Its IC50 is 0.51 µM.

CC1C2Cc3ccc(O)cc3C1(C)CC(C#N)N2C (single isomer, unassigned; form 2) was tested. Which IC50 did it give?
The IC50 was 0.51 µM.

With C[C@H]1[C@@H]2Cc3ccc(O)cc3[C@]1(C)CCN2C [METAZOCINE] as the molecule, how does the IC50 read?
The IC50 was 0.094 µM.

Target: Mu-type opioid receptor (Cavia porcellus) (UniProt P97266)
Test: Mu opioid receptor agonist activity was determined by inhibition of electrically stimulated myenteric plexus in guinea pig ileum; Inactive
Format: functional, tissue-based
Settings: not given

CC1C2(C)CCN(C)C1(C(N)=O)Cc1ccc(O)cc12 (configuration not stated) was tested. Which Relative potency did it give?
The Relative potency was “inactive”.

For CC1C2(C)CCN(C)C1(C#N)Cc1ccc(O)cc12 (racemic), which Relative potency is on record?
The Relative potency was “inactive”.

Which Relative potency does the source give for CC1C2Cc3ccc(O)cc3C1(C)CC(C(N)=O)N2C (single isomer, unassigned; (+)) here?
Its Relative potency is “inactive”.

How did the Relative potency turn out when CSCC[C@@H](NC(=O)[C@H](Cc1ccccc1)NC(=O)CNC(=O)CNC(=O)C12Cc3ccc(O)cc3C(C)(CCN1C)C2C)C(N)=O (single isomer, unassigned; (+)) was run?
The Relative potency was “inactive”.

Which Relative potency does the source give for CSCC[C@@H](NC(=O)[C@H](Cc1ccccc1)NC(=O)CNC(=O)CNC(=O)C1CC2(C)c3cc(O)ccc3CC(C2C)N1C)C(N)=O (single isomer, unassigned; (+)) here?
The Relative potency was “inactive”.

Target: Mu-type opioid receptor (Cavia porcellus) (UniProt P97266)
Test: Mu opioid receptor agonist activity was determined by inhibition of electrically stimulated myenteric plexus in guinea pig ileum
Format: functional, tissue-based
Settings: not given

For CSCC[C@H](NC(=O)[C@H](Cc1ccccc1)NC(=O)CNC(=O)[C@@H](C)NC(=O)[C@@H](N)Cc1ccc(O)cc1)C(N)=O, which Relative potency is on record?
The Relative potency was 329.

CSCC[C@@H](NC(=O)[C@H](Cc1ccccc1)NC(=O)CNC(=O)CNC(=O)C1CC2(C)c3cc(O)ccc3CC(C2C)N1C)C(N)=O (some centres not stated) was tested. Which Relative potency did it give?
The Relative potency was 0.007.

Which Relative potency does the source give for CC1C2(C)CCN(C)C1(C(N)=O)Cc1ccc(O)cc12 (single isomer, unassigned; (-)) [listing 2 of 2 here] here?
Its Relative potency is 0.02.

CC1C2Cc3ccc(O)cc3C1(C)CC(C(N)=O)N2C (single isomer, unassigned; (-)) [listing 2 of 2 here] was tested. Which Relative potency did it give?
The Relative potency was 0.009.
